The source of these data is ChEMBL document CHEMBL1201862, “PubChem BioAssay data set” (2004).

Some test systems named below: BT-549; COLO 205; DU-145; EKVX; HL-60; HOP-62; HT-29; IGROV-1; LOX IMVI; MCF7; MDA-MB-435; OVCAR-4; PC-3; RXF 393; SF-539; SK-MEL-28; T47D; U-251; UO-31.
Common to all, as to assay: DTP human tumour cell line panel, 48 h

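How tested: cells in 96-well plates exposed to compound for 48 hours at five concentrations. GI50 marks 50% less growth.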 Activity calls are given as the source filed them. Rule as the data show it: active = GI50 up to about 1.1 µM and inactive = higher.

For the compound `COC1=CC(=O)c2c(cc(COP(N)(=O)N(CCCl)CCCl)n2C)C1=O` (stereo not given), the GI50 in the assay on BT-549 was 0.471 µM (active); with COLO 205, 1.39 µM (inactive); in the assay on DU-145, 1.75 µM (inactive); in the assay with EKVX it was 0.676 µM (active); in the assay with HL-60, 0.302 µM (active); in the assay on HOP-62, 2.18 µM (inactive). For the same compound, the GI50 was 0.186 µM (active) with HT-29; 0.17 µM (active) in the assay on IGROV-1; 0.0284 µM (active) in the assay with LOX IMVI; 0.0767 µM (active) in the assay with MCF7; 1.61 µM (inactive) in the assay with MDA-MB-435; 3.52 µM (inactive) in the assay with OVCAR-4. Also, the GI50 with PC-3 was 1.49 µM (inactive); in the assay with RXF 393 it was 0.457 µM (active); in the assay with SF-539, 0.0785 µM (active); with SK-MEL-28 it was 2.9 µM (inactive); in the assay on T47D it was < 0.0486 µM (active); in the assay with U-251 it was 0.0822 µM (active). Besides, the GI50 in the assay with UO-31 is 0.557 µM (active).
On to `N#C/C(=C\N1CCNC1=S)C(=O)c1ccc2ccccc2c1`, for which the GI50 in the assay with BT-549 was > 100 µM (inactive); with COLO 205, > 100 µM (inactive); with DU-145, > 100 µM (inactive); in the assay with EKVX, > 100 µM (inactive); in the assay with HL-60, 7.06 µM (inactive); in the assay with HOP-62, > 100 µM (inactive). Further, the GI50 in the assay on HT-29 was > 100 µM (inactive); in the assay with IGROV-1, > 100 µM (inactive); with LOX IMVI, > 100 µM (inactive); in the assay on MCF7, > 100 µM (inactive); in the assay on MDA-MB-435, 89.1 µM (inactive); in the assay on OVCAR-4 it was 74 µM (inactive). Also, the GI50 is 97.1 µM (inactive) in the assay with PC-3; > 100 µM (inactive) with RXF 393; > 100 µM (inactive) in the assay on SF-539; > 100 µM (inactive) with SK-MEL-28; 67 µM (inactive) in the assay with T47D; > 100 µM (inactive) with U-251. In addition, the GI50 in the assay with UO-31 was > 100 µM (inactive).
Take `Nc1nc(Cl)cc(Oc2ccc(Cl)cc2)n1`: the GI50 in the assay on BT-549 is 28.2 µM (inactive); with COLO 205, > 60.5 µM (inactive); with DU-145 it was > 56.2 µM (inactive); in the assay on EKVX, > 100 µM (inactive); with HL-60, > 68.9 µM (inactive); in the assay on HOP-62, > 100 µM (inactive). For the same compound, the GI50 in the assay on HT-29 was > 100 µM (inactive); in the assay on IGROV-1 it was > 100 µM (inactive); in the assay with LOX IMVI, > 48.3 µM (inactive); with MCF7, > 53.2 µM (inactive); in the assay with MDA-MB-435, > 57.3 µM (inactive); with OVCAR-4, > 53.2 µM (inactive). Moreover, the GI50 in the assay with PC-3 was > 100 µM (inactive); in the assay on RXF 393, > 100 µM (inactive); with SF-539 it was > 50.7 µM (inactive); with SK-MEL-28, > 57.3 µM (inactive); in the assay with T47D, 32.4 µM (inactive); in the assay on U-251, > 56.2 µM (inactive). The GI50 in the assay with UO-31 was 29.9 µM (inactive).
Turning to `CC(C)CC(=O)NC(NC(C)C)(C(F)(F)F)C(F)(F)F`, the GI50 in the assay on BT-549 is > 100 µM (inactive); in the assay on COLO 205 it was > 100 µM (inactive); in the assay on DU-145, > 100 µM (inactive); in the assay on EKVX, > 100 µM (inactive); with HL-60, 60.5 µM (inactive); in the assay on HOP-62, > 100 µM (inactive). Moreover, the GI50 in the assay with HT-29, in the assay on IGROV-1, with LOX IMVI, in the assay with MCF7, in the assay with MDA-MB-435 and in the assay with OVCAR-4 was > 100 µM (inactive) each time. Besides, the GI50 with PC-3, in the assay with RXF 393, in the assay with SF-539, in the assay with SK-MEL-28, with T47D and in the assay with U-251 was > 100 µM (inactive) each time. For the same compound, the GI50 in the assay with UO-31 was > 100 µM (inactive).
Consider `CC1CCCC(C(=O)CC2CC(=O)NC(=O)C2)C1=O` (stereo not given), for which the GI50 in the assay on BT-549, with COLO 205, with DU-145, in the assay on EKVX, in the assay on HL-60 and in the assay on HOP-62 was > 100 µM (inactive) in each case. The GI50 in the assay on HT-29, in the assay with IGROV-1, with LOX IMVI, with MCF7, with MDA-MB-435 and in the assay on OVCAR-4 was > 100 µM (inactive) throughout. Besides, the GI50 with PC-3, with RXF 393, with SF-539, with SK-MEL-28, with T47D and in the assay on U-251 was > 100 µM (inactive) in each case. In addition, in the assay with UO-31, the GI50 is > 100 µM (inactive).
As for `O=P1(O)c2ccccc2CSCc2ccccc21`, the GI50 in the assay on BT-549, in the assay with COLO 205, in the assay with DU-145, in the assay with EKVX, in the assay on HL-60 and in the assay on HOP-62 was > 100 µM (inactive) throughout. The GI50 with HT-29, in the assay on IGROV-1, with LOX IMVI, with MCF7, in the assay on MDA-MB-435 and with OVCAR-4 was > 100 µM (inactive) in each case. For the same compound, the GI50 in the assay with PC-3, with RXF 393, in the assay on SF-539, in the assay with SK-MEL-28, with T47D and in the assay on U-251 was > 100 µM (inactive) in each case. Further, in the assay on UO-31, the GI50 was > 100 µM (inactive).
On to `O=c1oc2ccc3ccccc3c2cc1-c1cn2ccsc2n1`, for which the GI50 with BT-549 is 16.8 µM (inactive); in the assay on COLO 205 it was 16.1 µM (inactive); with DU-145, 19.9 µM (inactive); in the assay on EKVX it was 16.1 µM (inactive); in the assay on HL-60, 17.8 µM (inactive); in the assay with HOP-62, 34.5 µM (inactive). Further, the GI50 in the assay with HT-29 was 18 µM (inactive); in the assay on IGROV-1 it was 0.646 µM (active); in the assay on LOX IMVI, 15.8 µM (inactive); in the assay with MCF7, 3.03 µM (inactive); in the assay on MDA-MB-435, 22.4 µM (inactive); in the assay on OVCAR-4, 19.6 µM (inactive). Further, the GI50 with PC-3 was 26.7 µM (inactive); in the assay on RXF 393, 17.3 µM (inactive); in the assay on SF-539, 20.7 µM (inactive); in the assay with SK-MEL-28, 26 µM (inactive); in the assay with T47D, 13 µM (inactive); in the assay with U-251 it was 71.9 µM (inactive). In addition, the GI50 in the assay with UO-31 was 14.6 µM (inactive).
For the compound `CCOC(=O)[C@@H]1[C@@H]2NC(=O)N[C@@]1(C)Oc1ccccc12`, the GI50 in the assay with BT-549, in the assay on COLO 205, in the assay with DU-145, in the assay with EKVX, in the assay on HL-60 and in the assay on HOP-62 was > 100 µM (inactive) each time. Besides, the GI50 in the assay with HT-29, with IGROV-1, in the assay on LOX IMVI, in the assay with MCF7, in the assay on MDA-MB-435 and in the assay with OVCAR-4 was > 100 µM (inactive) throughout. The GI50 in the assay with PC-3, in the assay on RXF 393, in the assay with SF-539, in the assay with SK-MEL-28, with T47D and in the assay on U-251 was > 100 µM (inactive) in each case. In the assay on UO-31, the GI50 is > 100 µM (inactive).
Turning to `C=C1C(=O)O[C@H]2[C@H]3O[C@@H](C[C@@H]12)[C@](C)(O)CC[C@@H]1O[C@@]1(C)CCC[C@H]3C`, the GI50 was 12.2 µM (inactive) in the assay on BT-549; 16.4 µM (inactive) with COLO 205; 12.6 µM (inactive) in the assay on DU-145; 15.6 µM (inactive) with EKVX; 27 µM (inactive) in the assay on HL-60; 78.3 µM (inactive) in the assay with HOP-62. Further, the GI50 with HT-29 was 25.6 µM (inactive); in the assay on IGROV-1, 14.7 µM (inactive); in the assay with LOX IMVI, 16 µM (inactive); in the assay on MCF7, 21.4 µM (inactive); in the assay with MDA-MB-435, 17.1 µM (inactive); in the assay on OVCAR-4 it was 16.5 µM (inactive). Besides, the GI50 in the assay on PC-3 was 32 µM (inactive); with RXF 393, 13 µM (inactive); in the assay with SF-539 it was 18.7 µM (inactive); in the assay on SK-MEL-28 it was 32 µM (inactive); with T47D, 25.5 µM (inactive); in the assay on U-251, 22.4 µM (inactive). For the same compound, the GI50 in the assay with UO-31 is 22.2 µM (inactive).
On to `O=C1C(O)=C(C(C2=C(O)C(=O)c3ccccc3C2=O)c2ccc(Cl)cc2)C(=O)c2ccccc21`, for which the GI50 is 15.6 µM (inactive) in the assay on BT-549; 18.6 µM (inactive) in the assay on COLO 205; 5.42 µM (inactive) with DU-145; 13.6 µM (inactive) with EKVX; 1.66 µM (inactive) in the assay on HL-60; 6.47 µM (inactive) in the assay on HOP-62. In addition, the GI50 was 7.87 µM (inactive) in the assay with HT-29; 8.2 µM (inactive) with IGROV-1; 2.64 µM (inactive) in the assay with LOX IMVI; 5.13 µM (inactive) in the assay with MCF7; 1.83 µM (inactive) in the assay with MDA-MB-435; 6.24 µM (inactive) with OVCAR-4. Further, the GI50 in the assay on PC-3 is 18.8 µM (inactive); in the assay on RXF 393, 7.13 µM (inactive); in the assay with SF-539, 18 µM (inactive); with SK-MEL-28 it was 28.1 µM (inactive); in the assay on T47D it was 21 µM (inactive); with U-251, 6.24 µM (inactive). Moreover, the GI50 with UO-31 is 10.1 µM (inactive).

What is called GI50 is the concentration that inhibits growth by half.
